Data: patent US5639881A, “Synthesis and elucidation of pyrimido (4,5-Q) quinazoline derivatives” (priority 1991, dated 1997)
Read-outs that look alike come from different tables or passages of the source.

Columns and labels:
[1] = test system: colon and breast cancers; details: for IC50: Homo sapiens; for antitumor activity: colon and breast cancers
[2] = physchem; format: physicochemical
Text: (§1) The mechanism of 38 and 39 formation from 28 is discussed in conjunction with Scheme VI. The pH-rate data in FIG. 1 indicate that rate-determining chloride elimination occurs from the neutral, monoanion, dianion, and trianion forms of 28. Plateaus corresponding to the first three eliminations are indicated on FIG. 1. The increasing rates above pH 11 may pertain to equilibrium trianion formation and rate-determining elimination of chloride from the trianion. Consideration of rate-determining chloride elimination from the various forms of 28 provides the rate law shown in equation 1 [formula] where the rate and equilibrium constants are those shown in Scheme VI. The numerical values for these constants (shown in Scheme VI) were obtained by computer-fitting the data in FIG. 1 to equation 1. The solid line in FIG. 1 was then generated from equation 1 substituted with these constants. The independently determined pKa for monoanion formation (8.26±0.15) is in agreement with the kinetic pKa value (8.3). Thus, the kinetically-determined pKa values in Scheme VI represent actual acid dissociations rather than mixtures of constants. [drawing 5]
(§2) In aerobic aqueous buffer, both 43 and 44 are converted to the corresponding quinones {Scheme IX) by first-order processes. […] The solid curve of Plot A was generated from the rate law, kobsd =k1 +k2 Ka1 /(aH +Ka1), where k1 is the rate of oxidation of the neutral species (1×10^-3 sec^-1), k2 is the rate of oxidation of the hydroquinone monoanion (0.046 sec^-1), pKa1 is the acid dissociation constant (7.78), and aH is the proton activity determined with a pH meter. The acid dissociation constant obtained from the pH-rate data is nearly the same as the value determined previously, 8.26±0.15.1

[3] = lipophilicity (statement)
[4] = reduced capability to cycle between reduced and oxidized forms; cited from earlier work
[5] = format: physicochemical
Text: The hydrolysis of 28 was followed spectrophotometrically at 430 nm in anaerobic aqueous buffer over a pH range of 6 to 12 with [28]=5×10^-5 M. Absorbance vs. time plots for hydrolysis are first order in character, with the first-order rate constants (kobsd)independent of buffer concentration but dependent on pH as shown in FIG. 1. The use of known hydroquinone and quinone extinction coefficients at 430 nm permitted the calculation of product yields: 69±1% 38 and 31±1% 39 regardless of the pH (product structures shown in Scheme VI). The accuracy of the yield determinations was enhanced by the intense hydroquinone visible spectrum and the absence of visible absorbances for the quinone derivative. Product isolation studies confirmed the presence of 39.
as §1
The hydrolysis of 35 in anaerobic buffer proceeds by a first-order process to afford 42 as the sole product. […] The pH-rate profile, obtained over the pH range of 5 to 8, is a straight line of slope +1. […] Computer fitting the pH-rate data to kobsd =k1 Ka1 /aH, and substituting pKa1 =10.3, provides and elimination rate constant of k1 =24 sec^-1.
(§3) Kinetic Studies of Hydrolysis and Oxidation. The hydrolytic studies of 28 and 35 were carried out in anaerobic aqueous buffer, and the reoxidation studies of 43 and 44 were carried out in aerobic aqueous buffer at 30.0°±0.2° C. The anaerobic experiments were carried out with Thunberg cuvettes as previously described. A dimethyl sulfoxide stock of the compound to be studied was prepared fresh, and 50 μL of this stock was added to 2.95 mL of buffer. The absorbance vs time data were obtained on a PERKIN-ELMER 559 or a Lambda-3 UV-vis spectrophotometer and fit to a first-order rate law.

[6] = quinone methide trapping with added 2-mercaptoethanol; format: physicochemical; details: 10 to 100X excess of mercaptoethanol
Text: Chloride elimination from the neutral and anionic forms of 28 affords an equilibrating mixture of protonated (36), neutral (37), and anionic (37^-) quinone methides. Proton trapping by 37^-, in competition with water trapping of 36 and 37, then affords a mixture of 38 and 39. Evidence of steady-state intermediates capable of trapping nucleophiles (36 and 37) was obtained by adding 10 to 100X excess of Z-mercaptoethanol over 28. […] The presence mercaptoethanol results in formation of a hydroquinone (nucleophile-trapped) product 40 and no quinone 39, however. Thus, quinone methide formation must occur in a rate determining step, followed by its relatively rapid trapping by the mercaptide nuceophile. The mercaptoethanol trapping studies of benzimidazole (See: Skibo, E. B., J. Org. Chem. 1986, 51, 522) and quinazoline (See: Lemus et al., op. cit.) based quinone methides likewise provided evidence of a steady-state species.

[7] = format: physicochemical; remark: listed apart in the source
Procedure: Oxygen Reactivity. In order to assess the capability of the title systems to generate reactive oxygen species by quinone/hydroquinone cycling, the rate laws were determined for oxygen oxidation of 43 and 44, Scheme IX. These respective hydroquinones are analogues of 28 and 35 without leaving groups present. As expected, the internal hydrogen bonds of 43 slow oxidation at high pH while the absence of hydrogen bonds in 44 result in stopped flow oxidations under these conditions. However, the crossing of the pH-rate profiles near neutrality (FIG. 3) results in similar rates of oxidation for both systems at physiological pH.
as §2, §3

[8] = value determined previously; cited from earlier work
[9] = read-out: IC50 values as low as
[10] = regardless of pH (pH 6 to 12), 5×10^-5 M, 430 nm
[11] = aerobic aqueous buffer, 30.0 °C

COc1c2nc(CCl)n(C)c(=O)c2c(OC)c2nc(CCl)n(C)c(=O)c12 [compound 16, 2,7-Bis(chloromethyl)-5,10-dimethoxy-3,8-dimethylpyrimido [4,5-g]quinazoline-4,9(3H,8H)-dione]
IC50 [1, 9]: ≥ 20 nM
ionization at physiological pH [2]: will not ionize at physiological pH

O=C1c2nc(CBr)[nH]c(=O)c2C(=O)c2nc(CBr)[nH]c(=O)c21 [compound 19, 2,7-Bis(bromomethyl)pyrimido[4,5-g]quinazoline-4,5,9,10(3H,8H)-tetrone]
IC50 [1]: > 1000 nM
antitumor activity [1]: poor activity
pKa ([2]; anion formation near neutrality, read-out: pKa (conversion to an anion)): 6.5

COc1c2nc(CBr)n(C)c(=O)c2c(OC)c2nc(CBr)n(C)c(=O)c12 [compound 17, 2,7-Bis (bromomethyl)-5,10-dimethoxy-3,8-dimethylpyrimido[4,5-g]quinazoline-4,9(3H,8H)-dione]
IC50 [1, 9]: ≥ 20 nM
lipophilicity [3]: lipophilic
ionization at physiological pH [2]: will not ionize at physiological pH

COc1cccc2c1C(=N)c1c(O)c3c(c(O)c1C2=O)C[C@@](O)(C(C)=O)C[C@@H]3O[C@H]1C[C@H](N)[C@H](O)[C@H](C)O1 [5-iminodaunorubicin]
cardiotoxicity [4]: does reduce cardiotoxicity

Cn1c(CCl)nc2c(c1=O)C(=O)c1nc(CCl)n(C)c(=O)c1C2=O [compound 22, 2,7-Bis(chloromethyl)-3,8-dimethylpyrimido[4,5-g]quinazoline-4,5,9,10(3H8H)-tetrone]
antitumor activity [1]: inactive

Cc1nc2c(O)c3c(=O)[nH]c(CCl)nc3c(O)c2c(=O)[nH]1 [compound 28, 2-(Chloromethyl)-5,10-dihydroxy-7-methylpryimido[4,5-g]quinazoline-4,9(3H,8H)-dione]
yield of hydrolysis product 38 [5, 10]: 69±1%
yield of hydrolysis product 39 [5, 10]: 31±1%
pKa ([2]; aqueous buffer, from computer-fit of pH-rate profile of hydrolysis, read-out: kinetic pKa value): 8.3
observed rate constants in presence of 2-mercaptoethanol vs hydrolysis without it [6]: essentially the same

Cc1nc2c(O)c3c(=O)n(C)c(CCl)nc3c(O)c2c(=O)n1C [compound 35, 2-(Chloromethyl)-5,10-dihydroxy-3,7,8-trimethylpyrimido[4,5-g]quinazoline-4,9(3H,8H)-dione]
stability in protic solvent ([5]; any protic solvent): rapidly eliminates HCl
k1, rate constant for elimination of chloride from the monoanion ([5]; monoanion, anaerobic aqueous buffer, 30.0 °C): 24 s⁻¹
rates of hydrolysis ([5]; much above pH 8): stopped-flow rates

Cc1nc2c(O)c3c(=O)n(C)c(C)nc3c(O)c2c(=O)n1C [compound 44]
stability toward oxygen relative to reduced anthracyclines [7]: more stable toward oxygen than reduced anthracyclines
rates of oxidation ([7]; at or above pH 9): stopped flow rates
rate of oxidation of the hydroquinone monoanion [7, 11]: 5.8 s⁻¹
rate of oxidation at physiological pH [7]: 9×10^-3 sec^-1

Cc1nc2c(O)c3c(=O)[nH]c(C)nc3c(O)c2c(=O)[nH]1 [compound 43]
stability toward oxygen relative to reduced anthracyclines [7]: more stable toward oxygen than reduced anthracyclines
rate of oxidation of the hydroquinone monoanion [7, 11]: 0.046 s⁻¹
fold slower oxidation of 43^- than 44^- ([7]; monoanions): 128 fold
k1, rate of oxidation of the neutral species ([7]; neutral hydroquinone, aerobic aqueous buffer, 30.0 °C): 0.001 s⁻¹
rate of oxidation at physiological pH [7]: 1.7×10^-2 sec^-1
pKa ([2]; aerobic aqueous buffer, from pH-rate profile of oxidation, read-out: pKa1 (hydroquinone acid dissociation constant from pH-rate data)): 7.78
acid dissociation constant (pKa) determined previously [8]: 8.26±0.15
